The text below walks through data of publication PMC11199504, “New hemisynthetic derivatives of sphaeropsidin phytotoxins triggering severe endoplasmic reticulum swelling in cancer cells” (Scientific Reports, 2024).

Where two headings read alike, the source gives them in different places. Some results are limits rather than exact numbers.

The test system of experiment [1] is SKMEL-28. Details: method as in doi:10.1016/j.phytol.2012.08.011. The following applies: 72 h treatment; read-out: IC50 determined by MTT assays, SKMEL-28; cited from earlier work.
For experiment [2], the system named is U373. Details: method as in doi:10.1016/j.phytol.2012.08.011. The following applies: 72 h treatment; read-out: IC50 determined by MTT assays, U373; cited from earlier work. In general terms: Formazan colour is commonly taken as a measure of viable cells.
For experiment [3], the system named is A549, SKMEL-28, U373, MCF7, Hs683, B16F10. Details: method as in doi:10.1016/j.phytol.2012.08.011. Particulars: mean over cell lines (MCF7 not available); read-out: IC50 determined by MTT assays, Mean; cited from earlier work.
Experiment [4] concerns B16F10. Details: method as in doi:10.1016/j.phytol.2012.08.011. The following applies: 72 h treatment; read-out: IC50 determined by MTT assays, B16F10; cited from earlier work.
In experiment [5] the test system is Hs683. Details: method as in doi:10.1016/j.phytol.2012.08.011. Particulars: 72 h treatment; read-out: IC50 determined by MTT assays, Hs683; cited from earlier work.
Experiment [6] has as its system A549. Also on record: method as in doi:10.1016/j.phytol.2012.08.011. The following applies: 72 h treatment; read-out: IC50 determined by MTT assays, A549; cited from earlier work.
Experiment [7] deals with A549. The experiment is described as follows: MTT colorimetric assay, A549. The following applies: Homo sapiens, 72 h treatment, mean ± SEM of six replicates of one experiment (1: 7, 13: 6 independent experiments), resistant to apoptosis, read-out: IC50 determined by MTT assays, A549. It is filed as cell-based. The source says:
(§1) Cancer cell lines were obtained from either the European Collection of Cell Cultures (ECACC; Salisbury, UK) or the American Type Culture Collection (ATCC; Manassas, VA). The two glioma cell lines were the U373 (ECACC code 08061901) and Hs683 (ATCC HTB-138) cell lines. The carcinoma cell lines were the A549 non-small cell carcinoma cell line (ATCC code CCL 185) and the MCF-7 mammary breast carcinoma cell line (ATCC code HTB-22). The melanoma cell lines were the mouse B16F10 cells (ATCC code CRL-6475) and the human SKMEL-28 cells (ATCC code HTB-72). The ovarian cancer cell line A2780 and its cisplatin-resistant subline A2780cis were obtained from Sigma-Aldrich (St. Louis, MO, USA). Colon cancer HCT116 cells were obtained from ATCC (CCL-247) and the oxaliplatin-resistant subline HCT116/OxR established in the W. Berger lab[59]. The HeLa cell derivative KB-3-1 and the colchicine-selected, highly ABCB1-overexpressing subline KB-C-1 were generously donated by Dr. D. W. Shen, Bethesda, MD. RKOp53wt colon cancer cells together with the RKOp53KO (homozygous knock-out) subline[60] were generously provided by Dr. Vogelstein from John Hopkins University, Baltimore. The correct origin of all cell models was confirmed by STR during performance of the experiments. All cell lines were cultured in RPMI1640 culture medium supplemented with 10% heat-inactivated fetal bovine serum, 2% L-glutamine (0.6 mg/mL), 2% penicillin/streptomycin (200 IU/mL and 200 μg/mL) and 0.1 mg/mL gentamicin.
(§2) The MTT (3-(4,5-dimethylthiazol-2-yl)-2,5-diphenyl tetrazolium bromide) colorimetric assay has been conducted as described previously. Briefly, cells were seeded 24 h before their treatment with each compound for a period of 72 h. The concentrations tested ranged from 10 nM to 100 µM. Each assay was conducted in sextuplicates. The number of independent experiments is mentioned in the legend of the tables.

In experiment [8] the test system is Hs683. The experiment is described as follows: MTT colorimetric assay, Hs683. It is filed as cell-based. Particulars: Homo sapiens, Hs 683; 72 h treatment; mean ± SEM; sensitive to apoptosis; read-out: IC50 determined by MTT assays, Hs683.
Source text: as §1, §2

In the next experiment the test system is KB-C-1. The experiment is described as follows: MTT assay, KB-C-1 (ABCB1-overexpressing). The class given is cell-based. The following applies: KBC-1; 72 h treatment; ± standard deviation; drug-resistant model; read-out: IC50 determined by MTT assays, KB-C-1.
Source text: as §1, §2
(§3) SI Table 1: IC50 determined by MTT assays. Mean concentration (± standard deviation) in µM required to
(§4) reduce the viability of cells by 50% after a 72 h treatment relative to the control.
(§5) Parental sensitive models Drug-resistant models

Experiment [9] has as its system SKMEL-28. The experiment is described as follows: MTT colorimetric assay, SKMEL-28. The class given is cell-based. The following applies: Homo sapiens, SK-MEL-28; 72 h treatment; mean ± SEM; resistant to apoptosis; read-out: IC50 determined by MTT assays, SKMEL-28.
Source text: as §1, §2

Another experiment has as its system Drug-resistant models. The experiment is described as follows: MTT assay, mean of drug-resistant models. The class given is cell-based. Particulars: 72 h treatment; read-out: IC50 determined by MTT assays, mean of drug-resistant models.
Source text: as §1, §2, §3, §4, §5

Experiment [10] deals with U373. The experiment is described as follows: MTT colorimetric assay, U373. The class given is cell-based. Particulars: Homo sapiens, U373 MG; 72 h treatment; mean ± SEM; resistant to apoptosis; read-out: IC50 determined by MTT assays, U373.
Source text: as §1, §2

Experiment [11] relates to Parental sensitive models. The experiment is described as follows: MTT assay, mean of parental sensitive models. It is filed as cell-based. The following applies: 72 h treatment; read-out: IC50 determined by MTT assays, mean of parental sensitive models.
Source text: as §1, §2, §3, §4, §5

A further experiment has as its system RKO/P53wt. The experiment is described as follows: MTT assay, RKO/P53wt (parental sensitive). It is filed as cell-based. Particulars: 72 h treatment; ± standard deviation; parental sensitive model; read-out: IC50 determined by MTT assays, RKO/P53wt.
Source text: as §1, §2, §3, §4, §5

Another experiment has as its system A2780. The experiment is described as follows: MTT assay, A2780 (parental sensitive). The class given is cell-based. The following applies: Homo sapiens, A2780; 72 h treatment; ± standard deviation; parental sensitive model; read-out: IC50 determined by MTT assays, A2780.
Source text: as §1, §2, §3, §4, §5

Experiment [12] relates to B16F10. The experiment is described as follows: MTT colorimetric assay, B16F10. The class given is cell-based. Particulars: Mus musculus, B16-F10; 72 h treatment; mean ± SEM; sensitive to apoptosis; read-out: IC50 determined by MTT assays, B16F10.
Source text: as §1, §2

In a further experiment the test system is MCF7. The experiment is described as follows: MTT colorimetric assay, MCF7. It is filed as cell-based. The following applies: Homo sapiens, 72 h treatment, mean ± SEM, sensitive to apoptosis, read-out: IC50 determined by MTT assays, MCF7.
Source text: as §1, §2

In experiment [13] the test system is A549, SKMEL-28, U373, MCF7, Hs683, B16F10. The experiment is described as follows: MTT colorimetric assay, mean of the six cell lines. It is filed as cell-based. The following applies: 72 h, mean over the six cell lines; 72 h treatment; read-out: IC50 determined by MTT assays, Mean.
Source text: as §1, §2

The subject of the next experiment is A2780R. The experiment is described as follows: MTT assay, A2780R (cisplatin-resistant). The class given is cell-based. The following applies: 72 h treatment; ± standard deviation; drug-resistant model; read-out: IC50 determined by MTT assays, A2780R.
Source text: as §1, §2, §3, §4, §5

The subject of the next experiment is Hct116/OxR. The experiment is described as follows: MTT assay, Hct116/OxR (oxaliplatin-resistant). It is filed as cell-based. The following applies: Homo sapiens, HCT-116; 72 h treatment; ± standard deviation; drug-resistant model; read-out: IC50 determined by MTT assays, Hct116/OxR.
Source text: as §1, §2, §3, §4, §5

For a further experiment, the target named is T1, human TopIIa (Homo sapiens, UniProt P11388).
T1 construct: purchased TopoGen (Port Orange, FL, USA)
T1 sequence (P11388 whole entry): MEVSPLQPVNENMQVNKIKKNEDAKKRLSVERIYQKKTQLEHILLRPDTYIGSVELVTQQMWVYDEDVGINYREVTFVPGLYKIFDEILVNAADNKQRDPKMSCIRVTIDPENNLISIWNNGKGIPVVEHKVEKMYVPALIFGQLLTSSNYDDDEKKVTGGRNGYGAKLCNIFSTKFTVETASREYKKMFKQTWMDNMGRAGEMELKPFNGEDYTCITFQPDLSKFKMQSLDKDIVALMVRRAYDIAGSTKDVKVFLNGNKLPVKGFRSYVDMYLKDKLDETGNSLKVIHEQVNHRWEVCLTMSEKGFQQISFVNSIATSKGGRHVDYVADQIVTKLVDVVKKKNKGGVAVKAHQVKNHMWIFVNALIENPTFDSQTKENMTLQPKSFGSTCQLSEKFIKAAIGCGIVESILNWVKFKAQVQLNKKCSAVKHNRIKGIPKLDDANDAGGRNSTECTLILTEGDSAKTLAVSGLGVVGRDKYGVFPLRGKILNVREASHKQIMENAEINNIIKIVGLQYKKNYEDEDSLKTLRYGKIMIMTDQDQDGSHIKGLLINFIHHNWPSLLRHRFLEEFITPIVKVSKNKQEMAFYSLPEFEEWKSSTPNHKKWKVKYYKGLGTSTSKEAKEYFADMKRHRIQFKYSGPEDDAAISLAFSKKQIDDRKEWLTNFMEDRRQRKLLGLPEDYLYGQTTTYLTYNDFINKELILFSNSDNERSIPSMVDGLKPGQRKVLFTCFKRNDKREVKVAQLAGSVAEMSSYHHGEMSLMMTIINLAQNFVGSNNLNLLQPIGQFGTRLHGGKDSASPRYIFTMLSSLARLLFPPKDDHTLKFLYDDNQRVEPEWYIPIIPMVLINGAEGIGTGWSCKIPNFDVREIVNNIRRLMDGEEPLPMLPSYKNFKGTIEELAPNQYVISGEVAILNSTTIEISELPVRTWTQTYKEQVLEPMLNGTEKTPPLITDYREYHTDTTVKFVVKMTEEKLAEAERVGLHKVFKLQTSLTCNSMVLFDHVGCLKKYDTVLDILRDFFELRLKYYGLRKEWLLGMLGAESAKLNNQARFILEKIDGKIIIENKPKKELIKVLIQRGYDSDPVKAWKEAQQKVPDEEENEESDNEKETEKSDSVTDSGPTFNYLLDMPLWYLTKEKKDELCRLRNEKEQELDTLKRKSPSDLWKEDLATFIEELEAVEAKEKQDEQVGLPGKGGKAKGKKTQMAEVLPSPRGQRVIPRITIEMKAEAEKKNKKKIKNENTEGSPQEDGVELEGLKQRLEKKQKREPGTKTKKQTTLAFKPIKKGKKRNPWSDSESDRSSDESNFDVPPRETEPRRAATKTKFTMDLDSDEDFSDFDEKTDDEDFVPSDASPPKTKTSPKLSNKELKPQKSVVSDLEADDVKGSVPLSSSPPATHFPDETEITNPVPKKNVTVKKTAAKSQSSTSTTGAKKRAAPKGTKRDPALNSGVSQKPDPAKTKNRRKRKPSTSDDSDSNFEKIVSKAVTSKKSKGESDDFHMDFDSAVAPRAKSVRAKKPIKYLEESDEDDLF
The experiment is described as follows: Cell-free decatenation assay. It is filed as biochemical. Particulars: at 500 µM, read-out: TopoIIa inhibition. How it is done:
The topoisomerase (Top) activity assay kit, including kinetoplast DNA (kDNA and recombinant human TopIIa enzyme, was obtained from TopoGen (Port Orange, FL, USA), agarose from PeqLab (Erlangen, Germany), 50 × TAE buffer from Roth (Karlsruhe, Germany) and ethidium bromide solution (10 mg/mL) from Sigma-Aldrich (Taufkirchen, Germany). Decatenation assays were performed as described previously[62] with slight modifications according to the manufacturer’s protocol. 100 µM of the recently described dual topoisomerase poison P8-D6 served as a positive control, and 5% DMSO as a solvent control. Briefly, the compounds were dissolved in DMSO and diluted to 20× the concentration to be tested. 1 µL of the resulting stock solutions were mixed with 18 µL of a buffer containing 200 ng kDNA and 1 mM ATP. Subsequently, 1 µL of a 1u/µL dilution of TopIIa enzyme was added and incubated at 37 °C for 30 min. Afterwards, the reaction was stopped by addition of Stop buffer, and electrophoresis was carried out on a 1% agarose gel in TAE buffer. The gel was stained with 0.5 µg/mL ethidium bromide, washed with water, and fluorescence images were captured with the LAS4000 system (Fujifilm, Duesseldorf, Germany). All steps were carried out on ice.

A further experiment has as its system RKO/p53ko. The experiment is described as follows: MTT assay, RKO/p53ko. The class given is cell-based. Particulars: 72 h treatment; ± standard deviation; drug-resistant model; read-out: IC50 determined by MTT assays, RKO/p53ko.
Source text: as §1, §2, §3, §4, §5

Another experiment concerns KB-3-1. The experiment is described as follows: MTT assay, KB-3-1 (parental sensitive). The class given is cell-based. Particulars: Homo sapiens, KB 3-1; 72 h treatment; ± standard deviation; parental sensitive model; read-out: IC50 determined by MTT assays, KB-3-1.
Source text: as §1, §2, §3, §4, §5

The test system of the next experiment is Hct116. The experiment is described as follows: MTT assay, Hct116 (parental sensitive). The class given is cell-based. The following applies: Homo sapiens, HCT-116; 72 h treatment; ± standard deviation; parental sensitive model; read-out: IC50 determined by MTT assays, Hct116.
Source text: as §1, §2, §3, §4, §5

For the compound `C=CC1(C)C=C2C(=O)C3(OC(C)=O)OC(=O)C4(CCCC(C)(C)C34)C2(O)CC1` (stereo not drawn) [Compound 2], the IC50 is 2.68 ± 0.04 µM with SKMEL-28 [1]; 0.95 ± 0.02 µM with U373 [2]; 2.25 ± 0.48 µM in experiment [3]; 1.56 ± 0.16 µM in the experiment with B16F10 [4]; 3.76 ± 0.04 µM in the experiment with Hs683 [5]; 2.29 ± 0.13 µM with A549 [6].
Broadly, the inhibition is the percentage by which the read-out fell short of the control. Take `C=C[C@]1(C)C=C2[C@@H](O)[C@@]3(O)OC(=O)[C@@]4(CCCC(C)(C)[C@H]34)[C@@]2(O)CC1` [Compound 15, sphaeropsidin B, reference compound]: the IC50 is 44.8 ± 0.54 µM with A549 [7]; 43.1 ± 1.07 µM with Hs683 [8]; greater than 100 µM in the experiment on KB-C-1; 59.3 ± 4.51 µM in the experiment with SKMEL-28 [9]; greater than 100 µM with Drug-resistant models; 37.8 ± 1.5 µM in the experiment with U373 [10]. Further, the IC50 in experiment [11] was greater than 100 µM; with RKO/P53wt, greater than 100 µM; in the experiment on A2780, greater than 100 µM; in the experiment with B16F10 [12], 41.7 ± 1.49 µM; with MCF7, 84.5 ± 8.29 µM; in experiment [13], 51.9 ± 7.19 µM. For the same compound, the IC50 in the experiment with A2780R, in the experiment with Hct116/OxR, with RKO/p53ko, in the experiment with KB-3-1 and in the experiment on Hct116 was greater than 100 µM each time. Further, the inhibition at 500 µM on human TopIIa was roughly 50%.
